Structures can show the parent of a compound that is named as a salt.
Biological target: T1, Adrenergic β2 (Homo sapiens, UniProt P07550)
T1 construct: Adherent H292 cells were removed from tissue culture flasks; endogenous in cells; host or cells: H292 cells
Assay: Adrenergic β2 mediated cAMP production in H292 cells (AlphaScreen)
Type: cell-based
Conditions: Intrinsic Activity as a fraction relative to the maximum activity determined for formoterol
Experimental: Adrenergic β2 Mediated cAMP Production
H292 cells were grown in 225 cm2 flasks incubator at 37° C., 5% CO2 in RPMI medium containing, 10% (v/v) FBS (foetal bovine serum) and 2 mM L-glutamine.
Adherent H292 cells were removed from tissue culture flasks by treatment with Accutase™ cell detachment solution for 15 minutes. Flasks were incubated for 15 minutes in a humidified incubator at 37° C., 5% CO2. Detached cells were re-suspended in RPMI media (containing 10% (v/v) FBS and 2 mM L-glutamine) at 0.05×10^6 cells per mL. 5000 cells in 100 μL were added to each well of a tissue-culture-treated 96-well plate and the cells incubated overnight in a humidified incubator at 37° C., 5% CO2. The culture media was removed and cells were washed twice with 100 μL assay buffer and replaced with 50 μL assay buffer (HBSS solution containing 10 mM HEPES pH7.4 and 5 mM glucose). […]
The concentration of cAMP (cyclic adenosine monophosphate) in the cell lysate was determined using AlphaScreen™ methodology. […] The AlphaScreen™ signal was measured using an EnVision spectrophotometer (Perkin-Elmer Inc.) with the recommended manufacturer's settings. cAMP concentrations were determined by reference to a calibration curve determined in the same experiment using standard cAMP concentrations. […] Intrinsic Activity was expressed as a fraction relative to the maximum activity determined for formoterol in each experiment.

T1 sequence (P07550 whole entry): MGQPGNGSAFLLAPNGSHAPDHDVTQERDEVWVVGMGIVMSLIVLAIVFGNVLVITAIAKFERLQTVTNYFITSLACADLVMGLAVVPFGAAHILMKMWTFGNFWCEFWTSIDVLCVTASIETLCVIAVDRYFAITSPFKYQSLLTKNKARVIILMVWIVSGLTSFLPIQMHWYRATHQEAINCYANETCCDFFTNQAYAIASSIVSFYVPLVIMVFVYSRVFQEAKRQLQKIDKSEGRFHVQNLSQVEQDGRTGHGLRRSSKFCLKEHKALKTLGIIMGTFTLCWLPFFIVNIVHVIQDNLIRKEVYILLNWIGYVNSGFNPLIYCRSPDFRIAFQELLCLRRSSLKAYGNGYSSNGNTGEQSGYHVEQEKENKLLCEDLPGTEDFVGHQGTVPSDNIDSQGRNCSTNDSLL

## O=c1[nH]c2c(O)ccc([C@@H](O)CNCCSCCCNCCc3ccccc3Cl)c2s1 [Compound A, 7-[(1R)-2-({2-[(3-{[2-(2-Chlorophenyl)ethyl]amino}-propyl)thio]ethyl}amino)-1-hydroxyethyl]-4-hydroxy-1,3-benzothiazol-2(3H)-one dihydrobromide]
  β2 Int Act: 0.8

Source: US20100016388A1, “Salts of a Selective Beta-2 Andrenoceptor Agonist” (priority 2007, published 2010)
